Experimental data published in patent US20130225675A1, “BACTERIAL CONTROL OF WATER BASED FLUIDS DURING […] AND […] TIME IN THE SU[…]” (SCHLUMBERGER TECHNOLOGY CORPORATION, priority 2010, published 2013).

Tested on: Sulfate-Reducing Bacteria
Assay: Qualitative test kit specific to sulfate-reducing bacteria, produced water samples
Format: cell-based
Conditions: produced water from the Piceance basin, 250 ppm glutaraldehyde, "Glut+butenolide" with a further 125 ppm butenolide
Method: Produced water samples from the Piceancebasin were tested for bacterial content in a simple qualitative test kit manufactured by “Droycon Boiconcepts Inc., specific to Sulfate-Reducing Bacteria. Three kits were used, labeled “No treatment”, “Glutaraldehyde”, and “Glut+butenolide”. The latter two bottles were treated with 250 ppm glutaraldehyde.
FIG. 1 is a photograph series that compares the experimental results of testing the effectiveness of biocide compositions.

O=CCCCC=O [Glutaraldehyde, glutaraldehyde]
appearance of the test bottle (black residues characteristic of the presence of SRBs) (after 14 days): clear and pale yellow | appearance of the test bottle (re-growth of SRBs, fine black residues) (after 17 days): begun to show re-growth of SRBs
